Test results published in article PMC4467128 (Oncotarget, 2014).

How the values were obtained:
HUVEC cells = assay: MTT cell viability assay, normal HUVEC cells; assay type: cell-based; conditions: Homo sapiens, 24 h, read-out: IC50 (cell viability, toxicity)
Method: (§1) Two fast-growing malignant B cell lymphoma (Burkitt lymphoma) cell lines and human umbilical vein endothelial cells (HUVEC) were used. Ramos and HUVEC cells were purchased from American Type Culture Collection (Manassas, VA, USA) and BJAB cells were a kind gift from Professor Ping-Ning Hsu (National Taiwan University Hospital and National Taiwan University, College of Medicine, Taipei, Taiwan). […] All cells were maintained in humidified air containing 5% CO2 at 37°C. Cell density was maintained between 1×10^5 and 1×10^6 cell/ml and passaged every 2 to 3 days.
(§2) Cell viability was assessed by MTT assay. […] After the treatment, 100 μl of 0.5 mg/ml 3-(4,5-Dimethylthiazol-2-yl)-2,5-diphenyl-tetrazolium bromide (MTT) were added to each well and incubated at 37°C to stained cells forming an insoluble blue formazan product. After 1 h incubation, 100 μl of extraction reagent (0.1M sodium acetate buffer or DMSO) were added to each well and mix thoroughly to lyse cells. The plates were then measured at 550 nm using an enzyme-linked immunosorbent assay (ELISA) reader (Packard, Meriden, CT, USA).

Ramos cells [1] = assay: MTT cell viability assay, Ramos B-cell lymphoma cells; assay type: cell-based; conditions: Homo sapiens, 24 h, mean ± SEM, read-out: IC50 (growth inhibition)
Method: as §1, §2

BJAB cells = assay: MTT cell viability assay, BJAB B-cell lymphoma cells; assay type: cell-based; conditions: Homo sapiens, 24 h, mean ± SEM, read-out: IC50 (growth inhibition)
Method: as §1, §2

HDAC1, 2, 6, and 8 = conditions: range over the four isoforms; cited from earlier work
[2] = tested on: HDAC enzyme activity in BJAB cells; assay: Cell-based HDAC fluorescence activity assay, BJAB; conditions: Homo sapiens, 24 h, read-out: IC50 (HDAC enzyme activity)
Method: (§4) After the incubation, the lysine developer in this kit was added and the mixture was incubated for another 30 min at 37°C.

Ramos cells [3] = assay: Ramos engraftment survival model in NOD/SCID mice; assay type: in vivo; conditions: daily oral gavage, MPT0E028 100 mg/kg, SAHA 200 mg/kg
Text: (§3) The mice were carefully maintained and all animal procedures were in accordance with the Institutional Animal Care and Use Committee procedures and guidelines. All animal experiments followed ethical standards, and protocols has been reviewed and approved by Animal Use and Management Committee of National Taiwan University (IACUC Approval No: 20100225).
In Ramos engrafment model, human B-cell lymphoma Ramos cells were resuspended at 10^7 cells/ml in culture medium at room temperature, and 2×10^6 cells were inoculated into male NOD/SCID mice via tail vein. Treatment began 1 week after engrafment. […] Survival rate was used as end point for this study.

[4] = tested on: HDAC enzyme activity in Ramos cells; assay: Cell-based HDAC fluorescence activity assay, Ramos; conditions: Homo sapiens, 24 h, read-out: IC50 (HDAC enzyme activity)
Method: as §4

[5] = tested on: p-Akt (S473) in BJAB cells; assay: Cell-based ELISA for p-Akt (S473), BJAB; conditions: Homo sapiens, 24 h, mean ± SEM, read-out: IC50 (Akt dephosphorylation, p-Akt S473)
Method: After the treatment, cells were lysed with ice-cold lysis buffer mentioned above and equivalent aliquots of protein were subjected to a PathScan phospho-Akt1 (Ser473) sandwich ELISA kit (Cell Signaling Technology) following manufacture's instruction. In briefly, whole cell lysate was first half-diluted with sample diluent and added 100 μl into the well incubating overnight at 4°C. After the reaction, wells were washed 4 times with 200 μl wash buffer and then added 100 μl of Akt1 mouse detection antibody incubating 1 h at 37°C. Washed 4 times again and then added 100 μl of anti-mouse IgG HRP-linked antibody incubating 30 min at 37°C. After incubation, washed the well once again and then added 100 μl TMB substrate for color production and finally added 100 μl STOP solution. The results were measured by spectrophotometer at wavelength 450 nm.

BJAB tumors = assay: BJAB xenograft tumor growth model in nude mice; assay type: in vivo; conditions: po, qd, 31 days
Method: as §3
In BJAB xenograft model, the male nude mice were injected subcutaneously with the same volume of BD Matrigel Matrix HC (BD bioscience, catalog 354248) and BJAB cells (2×10^7 cell/mouse) into the flank of each animal. […] Tumor size was measured twice weekly and calculated from V = 0.5 lw^2, where w = width (w) and l = length (l). At the end of study, tumors were carefully removed and frozen in liquid nitrogen for subsequent western analysis.

Akt = Akt (Homo sapiens, UniProt P31749); assay: Enzyme-based Akt kinase activity assay (Kinome Diversity Screen, ELISA quantitation); assay type: biochemical; conditions: crosstide substrate
Akt, sequence (P31749 whole entry): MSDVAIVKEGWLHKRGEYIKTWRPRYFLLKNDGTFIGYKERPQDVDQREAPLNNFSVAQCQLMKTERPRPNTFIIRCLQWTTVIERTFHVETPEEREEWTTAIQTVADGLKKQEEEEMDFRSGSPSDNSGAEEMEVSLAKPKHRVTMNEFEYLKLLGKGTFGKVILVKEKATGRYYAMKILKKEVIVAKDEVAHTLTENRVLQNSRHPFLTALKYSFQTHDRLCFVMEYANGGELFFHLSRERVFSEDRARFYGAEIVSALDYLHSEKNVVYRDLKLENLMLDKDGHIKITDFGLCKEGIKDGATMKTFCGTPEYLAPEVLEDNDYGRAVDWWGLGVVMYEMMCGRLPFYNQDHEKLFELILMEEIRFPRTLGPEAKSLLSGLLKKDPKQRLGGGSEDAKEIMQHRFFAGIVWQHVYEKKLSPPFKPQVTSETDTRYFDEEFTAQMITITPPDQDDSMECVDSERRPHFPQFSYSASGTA
Method: In briefly, Akt activity was assayed using human recombinant insect Sf21 cells for Akt kinase source and crosstide peptide ([…], 15 μg/mL) as a substrate. Cell lysate was incubated with kinase assay buffer (50 mM HEPES pH 7.4, 10 mM MgCl2, 0.2 mM Na3VO4, and 1 mM DTT) for 60 min at 25°C, and analyzed by ELISA quantitation of Crosstide-P.

HDAC4 = conditions: cited from earlier work
[6] = Body weight of BJAB tumor bearing mice; assay type: in vivo; conditions: nude mice, 50-200 mg/kg, po, qd, 31 days
Method: The mice were carefully maintained and all animal procedures were in accordance with the Institutional Animal Care and Use Committee procedures and guidelines. […] Tumor size was measured twice weekly and calculated from V = 0.5 lw^2, where w = width (w) and l = length (l). At the end of study, tumors were carefully removed and frozen in liquid nitrogen for subsequent western analysis.

Compound | IC50 (HUVEC cells) [µM] | IC50 (Ramos cells [1]) [µM] | IC50 (BJAB cells) [µM] | IC50 (HDAC1, 2, 6, and 8) [µM] | IC50 [2] [µM] | Survival rate compared with control group (Ramos cells [3]) | IC50 [4] [µM] | IC50 [5] [µM] | TGI (BJAB tumors; 100 mg/kg) [%] | TGI (BJAB tumors; 200 mg/kg) [%] | IC50 (Akt) [µM] | effect upon HDAC4 (HDAC4) | Body weight difference between groups [6]
O=C(C=Cc1ccc2c(c1)CCN2S(=O)(=O)c1ccccc1)NO [MPT0E028, 3-(1-Benzenesulfonyl-2,3-dihydro-1H-indol-5-yl)-N-hydroxy-acrylamide] | > 30 | 0.65 ± 0.1 | 1.45 ± 0.5 | 0.0295 to 2.53 | 4.54 ± 1.2 | significantly prolonged | 2.88 ± 1.9 | 5.9 ± 1.6 | 20.8 | 40.4 | 5.78 | no effect | no significant difference in body weight
O=C(CCCCCCC(=O)Nc1ccccc1)NO [SAHA, reference compound] |  |  |  |  |  | no significant efficacy |  | 32.9 ± 11.3 |  | 17.9 |  |  | 
